One data set addresses T1, DNA-PK kinase (Homo sapiens, UniProt P78527).
T1 construct: purchased Promega V4107
The data set is described as follows: Inhibition assay of DNA-PK kinase (Promega kit, ADP-Glo chemiluminescence). It counts as biochemical. Particulars: 50 µM ATP, 37° C., 60 min; read-out: IC50 (nM), inhibitory activity on DNA-PK kinase. On the procedure: The inhibitory activity of the compounds on DNA-PK kinase was measured by using a DNA-PK kinase assay kit (purchased from Promega, Cat.#: V4107, Lot: 0000366495). The results were quantified by chemiluminescence, and the detailed experimental protocol was as follows: • i. An ADP-fluorescence standard curve over a range of concentrations was plotted according to the kit instructions; • ii. […] The mixtures were mixed well, centrifuged (1000 rpm, 30 s), and incubated at 37° C. for 60 min; • iv. 5 µL of ADP-Glo™ Reagent was added to stop the reaction, which was then mixed well, centrifuged (1000 rpm, 30 s), and incubated at room temperature for 40 min; • v. 10 µL Kinase Detection Reagent was added, and the mixture was mixed well by shaking, centrifuged (1000 rpm, 30 s), and incubated at room temperature for 30 min; • vi. The […] was measured by using a microplate reader (Thermo fisher, Varioskan LUX).

Data set [1] can be described thus: Metabolic stability in liver microsomes. Format: in vitro ADME, human. Particulars: 0.5 µM test substance, 0.5 mg/mL microsomes, NADPH and UDPGA, 37° C.; for half-life at 0.5 µM: human, human liver microsomes, read-out: T½(min), stability in human liver microsomes. On the procedure: Liver microsomes (purchased from Reed Liver Disease Research (Shanghai) Co., Ltd., product: human liver microsomes (NJT)); NADPH (purchased from Roche, Lot: 40939); UDPGA; the compounds of the present invention (test substances).
• (1) A mixed working solution of testosterone (0.5 µM) and 7-hydroxycoumarin (0.5 µM) was prepared. • (2) A mixed solution of NADPH (1 mM) and UDPGA (1 mM) was prepared, and prewarmed at 37° C. in a water bath shaker before use. • (3) Liver microsomes were thawed and diluted with a buffer. • (4) A preparation of a test substance (0.5 µM) and a solution of liver microsomes (0.5 mg/mL) were added to each well of an incubation plate. • (5) Three experimental groups were set and samples were added. Test group: the test substance was incubated with liver microsomes for 0 min, 30 min, 60 min, and 120 min in the presence of the coenzyme NADPH and UDPGA; Positive control group: testosterone (0.5 µM) and 7-hydroxycoumarin (0.5 µM) were incubated with microsomes for 0 min and 120 min in the presence of the coenzyme NADPH and UDPGA; Negative control group: the test substance was incubated with microsomes for 0 and 120 min without any coenzyme. • (6) All samples were incubated at 37° C., and pre-cooled methanol was added at each termination time (0, 15, 30, 45, 60 min, 120 min) to terminate the reaction, and the time was recorded. • (7) All samples were mixed well and centrifuged at 4000 rpm for 10 min. The supernatant was taken and measured by LC-MS/MS for the amount of the test substance remaining in the samples. Data analysis was carried out as follows: T½=0.693 /k, Clint = (0.693/T½) × (1 /(microsomal protein) × Scaling Factors), Note: k is the slope of the logarithm of the remaining amounts of compound versus time.
For orientation: Liver microsomes are vesicles of endoplasmic reticulum, rich in cytochrome P450 enzymes.

Data set [2] can be described thus: Pharmacokinetic assay in ICR mice (i.v. and p.o.). Format: in vivo. Particulars: mouse, plasma, male ICR mice; for half-life: read-out: T½ (converted); for bioavailability: po 10 mg/kg vs iv 1 mg/kg. How it is done: ICR mice were purchased from Beijing Vital River Laboratory Animal Technology Co., Ltd.
3.2 Experimental procedure • (1) Healthy male ICR mice (18-22 g) were prepared, with 18 mice for each compound. The mice were divided into 2 groups (an i.v. group and a p.o. group), with 9 mice per group. 3 mice were picked for blood collection at each time point. • (2) After the animals were fasted overnight (with free access to water), the compound of the present invention dissolved (or suspended) in a solvent of 5% DMSO and 95% 30% HP-β-CD (v:v) was administered via the tail vein (i.v., 1 mg/kg) or intragastrically (p.o., 10 mg/kg), respectively. • (3) For the i.v. group, 0.1 mL blood was collected from the submandibular vein 5 min, 15 min, 0.5 h, 1 h, 2 h, 4 h, 8 h, 12 h, and 24 h after administration, respectively, anticoagulated with EDTA-K2, and centrifuged at 4° C. for 5 min to obtain plasma, which was stored at -20° C. until testing. (4) For the p.o. group, 0.1 mL blood was collected from the submandibular vein before administration and 15 min, 0.5 h, 1 h, 2 h, 4 h, 6 h, 8 h, 12 h, and 24 h after administration, and treated in the same manner as that for the intravenous group. • (5) The concentration of the compound of the present invention in plasma was measured by LC/MS/MS. • (6) Calculation and fitting were performed with Analyst 1.6 from AB Company, and the results are shown in Table 3.

Each structure is given as a SMILES string. Where two headings read alike, the source gives them in different places.

As a reminder, the IC50 is the point on the concentration scale where inhibition reaches its midpoint. Take `Cc1cc(C#N)c(F)cc1Nc1ncc2c(n1)n(C1CCOCC1)c(=O)n2C` [Compound 8, 2-Fluoro-5-methyl-4-((7-methyl-8-oxo-9-(tetrahydro-2H-pyran-4-yl)-8,9-dihydro-7H-purin-2-yl)amino)benzonitrile]: the IC50 on DNA-PK kinase came to 11.7 nM. For the same compound, the half-life at 0.5 µM in data set [1] was greater than 120 min.

One may read the AUC as the area under the concentration-time curve, a measure of exposure. A high value points to more exposure. A word on the Cmax: it is the highest concentration seen after dosing. For `Cc1cc(C#N)ccc1Nc1ncc2c(n1)n([C@H]1CC[C@@H](C#N)CC1)c(=O)n2C` [Compound 78, 4-((9-(cis-4-cyanocyclohexyl)-7-methyl-8-oxo-8,9-dihydro-7H-purin-2-yl)amino)-3-methylbenzonitrile], in data set [2] (iv, 1 mg/kg), the exposure (AUC) came out at 216 ng·h/mL and the half-life was 1.17 h. Besides, the bioavailability in data set [2] amounted to 65.2%. Moreover, in data set [2] (po, 10 mg/kg), the exposure (AUC) was 1200 ng·h/mL, the peak concentration (Cmax) came to 446 ng/mL and the half-life is 3.5 h. The IC50 on DNA-PK kinase was determined as 0.038 nM.

Turning to `CCOc1cc(Nc2ncc3c(n2)n(C2CCOCC2)c(=O)n3C)c(C)cc1C(N)=O` [Compound 53, 2-Ethoxy-5-methyl-4-((7-methyl-8-oxo-9-(tetrahydro-2H-pyran-4-yl)-8,9-dihydro-7H-purin-2-yl)amino)benzamide], the IC50 at DNA-PK kinase turned out to be 0.32 nM. Further, the half-life at 0.5 µM in data set [1] is greater than 120 min.

`Cc1cc(C(N)=O)c(F)cc1Nc1ncc2c(n1)n(C1CCC(F)(F)CC1)c(=O)n2C` [Compound 83, 4-((9-(4,4-difluorocyclohexyl)-7-methyl-8-oxo-8,9-dihydro-7H-purin-2-yl)amino)-2-fluoro-5-methylbenzamide]: the IC50 on DNA-PK kinase amounted to 0.43 nM. In addition, the half-life at 0.5 µM in data set [1] was greater than 120 min.

Consider `Cc1cc(C(N)=O)c(F)cc1Nc1ncc2c(n1)n(C1CCN(C)CC1)c(=O)n2C` [Compound 82, 2-Fluoro-5-methyl-4-((7-methyl-9-(1-methylpiperidin-4-yl)-8-oxo-8,9-dihydro-7H-purin-2-yl)amino)benzamide], for which the concentration for half-maximal inhibition (IC50) at DNA-PK kinase was determined as 24.5 nM. Besides, the half-life at 0.5 µM in data set [1] is greater than 120 min.

As to `Cc1cc(C(N)=O)c(F)cc1Nc1ncc2c(n1)n(C1CCC(C)(C#N)CC1)c(=O)n2C` (single isomer, unassigned) [Compound 92-1, 4-((9-(4-cyano-4-methylcyclohexyl)-7-methyl-8-oxo-8,9-dihydro-7H-purin-2-yl)amino)-2-fluoro-5-methylbenzamide], the half-life at 0.5 µM in data set [1] was greater than 120 min.

With `COc1cc(Nc2ncc3c(n2)n(C2CCOCC2)c(=O)n3C)c(C)cc1C(N)=O` [Compound 57, 2-Methoxy-5-methyl-4-((7-methyl-8-oxo-9-(tetrahydro-2H-pyran-4-yl)-8,9-dihydro-7H-purin-2-yl)amino)benzamide], on DNA-PK kinase, the IC50 turned out to be 3.98 nM. In data set [1], the half-life at 0.5 µM was greater than 120 min.

As to `[2H]C([2H])([2H])c1cc(C#N)ccc1Nc1ncc2c(n1)n(C1CCOCC1)c(=O)n2C` (single isomer, unassigned) [Compound 25, 3-(Methyl-d3)-4-((7-methyl-8-oxo-9-(tetrahydro-2H-pyran-4-yl)-8,9-dihydro-7H-purin-2-yl)amino)benzonitrile], the half-life at 0.5 µM in data set [1] was greater than 120 min.

Regarding `Cc1cc(C(N)=O)c(F)cc1Nc1ncc2c(n1)n([C@H]1CC[C@](C)(O)CC1)c(=O)n2C` [Compound 73, 2-Fluoro-4-((9-(trans-4-hydroxy-4-methylcyclohexyl)-7-methyl-8-oxo-8,9-dihydro-7H-purin-2-yl)amino)-5-methylbenzamide], in data set [2] (iv, 1 mg/kg), the AUC is 239 ng·h/mL and the half-life was 1.24 h. Besides, the bioavailability in data set [2] stood at 56%. In data set [2] (po, 10 mg/kg), the AUC worked out at 1270 ng·h/mL, the highest concentration (Cmax) is 484 ng/mL and the half-life is 2.5 h. Also, the half-life at 0.5 µM in data set [1] was greater than 120 min.

On to `CCn1c(=O)n(C2CCOCC2)c2nc(Nc3cc(F)c(C(N)=O)cc3C)ncc21` [Compound 62, 4-((7-ethyl-8-oxo-9-(tetrahydro-2H-pyran-4-yl)-8,9-dihydro-7H-purin-2-yl)amino)-2-fluoro-5-methylbenzamide], for which, in data set [2] (iv, 1 mg/kg), the area under the curve (AUC) worked out at 1190 ng·h/mL and the half-life is 1.69 h. The bioavailability in data set [2] worked out at 44.8%. Moreover, in data set [2] (po, 10 mg/kg), the AUC came out at 4720 ng·h/mL, the peak level (Cmax) was 1850 ng/mL and the half-life was 3.01 h. Moreover, the IC50 on DNA-PK kinase was determined as 4.17 nM.

`Cc1cc(C(N)=O)c(F)cc1Nc1ncc2c(n1)n(C1CCC(C)(C#N)CC1)c(=O)n2C` (single isomer, unassigned) [Compound 92-2, 4-((9-(4-cyano-4-methylcyclohexyl)-7-methyl-8-oxo-8,9-dihydro-7H-purin-2-yl)amino)-2-fluoro-5-methylbenzamide]: the “T½(min), stability in human liver microsomes” value in data set [1] is greater than 120 min.

`Cc1cc(C(N)=O)c(F)cc1Nc1ncc2c(n1)n([C@H]1CC[C@@](C)(O)CC1)c(=O)n2C` [Compound 72, 2-Fluoro-4-((9-(cis-4-hydroxy-4-methylcyclohexyl)-7-methyl-8-oxo-8,9-dihydro-7H-purin-2-yl)amino)-5-methylbenzamide]: in data set [2] (iv, 1 mg/kg), the AUC worked out at 1700 ng·h/mL and the half-life was 2.92 h. Moreover, in data set [2], the bioavailability worked out at 166%. Also, in data set [2] (po, 10 mg/kg), the area under the curve (AUC) was found to be 28200 ng·h/mL, the maximum concentration (Cmax) was determined as 4680 ng/mL and the half-life was 2.58 h. Also, the half-life at 0.5 µM in data set [1] was greater than 120 min.

On to `Cc1cc(C(N)=O)c(F)cc1Nc1ncc2c(n1)n(C1CC3(CC(CO)C3)C1)c(=O)n2C` (stereo not shown) [Compound 97, 2-Fluoro-4-((9-(6-(hydroxymethyl)spiro[3.3]heptan-2-yl)-7-methyl-8-oxo-8,9-dihydro-7H-purin-2-yl)amino)-5-methylbenzamide], for which the 50% inhibitory concentration (IC50) on DNA-PK kinase is 0.68 nM.

In the case of `COc1ccc(Nc2ncc3c(n2)n(C2CCOCC2)c(=O)n3C)c(C)n1` [Compound 21], the IC50 at DNA-PK kinase was 53 nM.

As to `Cc1cc(F)ccc1Nc1ncc2c(n1)n(C1CCOCC1)c(=O)n2C` [Compound 7, 2-((4-fluoro-2-methylphenyl)amino)-7-methyl-9-(tetrahydro-2H-pyran-4-yl)-7,9-dihydro-8H-purin-8-one], the IC50 at DNA-PK kinase turned out to be 5.47 nM.

Take `Cc1cc(C(N)=O)c(F)cc1Nc1ncc2c(n1)n(C1CCOCC1)c(=O)n2CC(F)F` [Compound 106, 4-((7-(2,2-difluoroethyl)-8-oxo-9-(tetrahydro-2H-pyran-4-yl)-8,9-dihydro-7H-purin-2-yl)amino)-2-fluoro-5-methylbenzamide]: the IC50 at DNA-PK kinase worked out at 6.75 nM.

For the compound `Cc1cc(C(=O)NC(C)C)ccc1Nc1ncc2c(n1)n(C1CCOCC1)c(=O)n2C` [Compound 30, N-Isopropyl-3-methyl-4-((7-methyl-8-oxo-9-(tetrahydro-2H-pyran-4-yl)-8,9-dihydro-7H-purin-2-yl)amino)benzamide], on DNA-PK kinase, the IC50 is 66.6 nM.
